Experimental data as given in patent EP1900728A1 (Genecare Research Institute Co., Ltd, priority 2005, dated 2006).

What follows are compounds tested against T1, IκBα ubiquitinating enzyme (SCF complex: ROC1, Cullin1, Skp1, His-TrCP1; with E1, UbcH5b) (Homo sapiens, UniProt P62877+P63208+Q13616+Q9Y297) (assay: Measurement of ubiquitinating enzyme activity (IκBα ubiquitination, time-resolved fluorescence with Eu(K)-labeled ubiquitin and XL665-labeled anti-GST antibody)). Settings: enzyme activity inhibition test, method (1), Table 5; read-out: EVALUATION.
T1 construct: His (polyhistidine); made in house; host or cells: insect cells (baculovirus) for the SCF complex and His-E1; E. coli for His-UBCH5b
T1 sequence (Q9Y297 whole entry): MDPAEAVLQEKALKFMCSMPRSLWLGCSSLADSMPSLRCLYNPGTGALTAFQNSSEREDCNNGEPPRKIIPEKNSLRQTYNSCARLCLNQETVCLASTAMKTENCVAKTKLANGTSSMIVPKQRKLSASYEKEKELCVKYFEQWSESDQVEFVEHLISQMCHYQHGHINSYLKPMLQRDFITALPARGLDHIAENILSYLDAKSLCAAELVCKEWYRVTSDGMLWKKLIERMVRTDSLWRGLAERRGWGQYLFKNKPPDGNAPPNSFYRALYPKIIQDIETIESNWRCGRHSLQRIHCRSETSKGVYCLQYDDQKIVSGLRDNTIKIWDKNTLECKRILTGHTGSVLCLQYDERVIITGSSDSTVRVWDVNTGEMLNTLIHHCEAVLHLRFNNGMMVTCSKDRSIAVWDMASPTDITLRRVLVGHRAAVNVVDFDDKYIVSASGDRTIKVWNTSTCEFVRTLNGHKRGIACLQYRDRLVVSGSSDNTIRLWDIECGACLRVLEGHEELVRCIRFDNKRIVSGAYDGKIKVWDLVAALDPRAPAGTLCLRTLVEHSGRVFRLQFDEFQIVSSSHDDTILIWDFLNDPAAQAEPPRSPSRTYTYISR
T1 sequence (Q13616 whole entry): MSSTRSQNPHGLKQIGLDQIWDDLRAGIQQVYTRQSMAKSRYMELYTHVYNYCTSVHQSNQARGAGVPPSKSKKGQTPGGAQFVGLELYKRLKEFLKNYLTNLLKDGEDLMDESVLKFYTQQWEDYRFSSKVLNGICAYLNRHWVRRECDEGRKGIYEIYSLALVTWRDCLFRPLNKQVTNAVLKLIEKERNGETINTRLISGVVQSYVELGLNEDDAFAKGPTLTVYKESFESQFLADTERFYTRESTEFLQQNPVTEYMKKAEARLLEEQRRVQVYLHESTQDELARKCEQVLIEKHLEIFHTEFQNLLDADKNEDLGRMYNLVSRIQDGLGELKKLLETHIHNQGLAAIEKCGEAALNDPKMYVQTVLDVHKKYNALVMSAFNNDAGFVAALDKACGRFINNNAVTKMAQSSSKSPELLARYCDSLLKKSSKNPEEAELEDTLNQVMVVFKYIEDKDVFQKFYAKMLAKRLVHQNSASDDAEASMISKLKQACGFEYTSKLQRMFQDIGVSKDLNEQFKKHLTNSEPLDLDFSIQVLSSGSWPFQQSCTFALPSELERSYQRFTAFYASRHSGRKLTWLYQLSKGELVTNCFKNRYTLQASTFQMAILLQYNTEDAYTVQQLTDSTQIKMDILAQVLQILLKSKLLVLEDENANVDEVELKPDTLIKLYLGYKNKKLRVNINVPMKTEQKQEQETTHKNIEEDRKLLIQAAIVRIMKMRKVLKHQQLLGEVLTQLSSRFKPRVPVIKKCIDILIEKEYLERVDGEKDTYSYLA
T1 sequence (P63208 whole entry): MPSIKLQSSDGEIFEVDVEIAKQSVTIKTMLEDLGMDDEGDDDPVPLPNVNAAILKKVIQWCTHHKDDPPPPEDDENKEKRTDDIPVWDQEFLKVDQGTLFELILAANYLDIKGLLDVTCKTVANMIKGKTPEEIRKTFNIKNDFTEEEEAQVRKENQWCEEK
T1 sequence (P62877 whole entry): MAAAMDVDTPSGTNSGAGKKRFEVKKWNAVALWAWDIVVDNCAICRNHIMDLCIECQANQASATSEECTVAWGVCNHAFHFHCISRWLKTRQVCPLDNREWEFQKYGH
Assay type: biochemical
Protocol: Method 1: Measurement of ubiquitinating enzyme activity
A recombinant vector His-UBCH5b containing a polyhistidine tag (His) and UBCH5b was prepared. E. coli was transformed with the vector, the protein was expressed, and affinity purification was carried out using Ni-NTA agarose (Qiagen). Four types of recombinant baculoviruses (ROC1, Cullin1, Skp1, and His-TrCP1) were prepared for the SCF complex protein, insect cells were infected in quadruplicate for expression, and affinity purification was carried out using Ni-NTA agarose. Recombinant baculoviruses His-IKKβ, His-E1 were prepared. The insect cells were infected with each of those for expression, and affinity purification was carried out using Ni-NTA agarose. A recombinant vector GST-IκBα was prepared by fusing glutathione-S-transferase tag (GST) and IκBα, E. coli was transformed with the vector for the protein expression, and affinity purification was carried out using glutathione sepharose (Amersham Biosciences). Genetic transformants were prepared by PCR amplification followed by recombination, all of which were based on published human-derived sequences.
Phosphorylation reaction of IκBα was performed by incubating the above-mentioned assay buffer (50 mM Tris-HCl (pH7.4), 2 mM ATP, 5 mM MgCl2, 0.5 mM DTT, 0.1% BSA) containing IκBα and IKKβ at room temperature for 1 hour. Ubiquitination reactions were carried out as follows. Compound samples at various concentrations, ubiquitin, Eu (K)-labeled ubiquitin, E1, UbcH5b, and SCF complex were added to phosphorylated IκBα, and then this was incubated at room temperature for 30 minutes. The reaction was terminated by adding EDTA, the above-mentioned revelation buffer (100 mM phosphate buffer (pH7.0), 0.5 M KF, 0.1% BSA) containing XL665-labeled anti-GST antibody was added and this was left to stand at room temperature for 2 hours. Measurements were made using ARVO-HTS (Perkin Elmer). The ratio of fluorescence intensities at 620 nm and 665 nm (Em 665 nm/Em 620 nm x 10,000) with excitation light at 337 nm was measured.
The ubiquitination level without the addition of a compound sample was used as the control value, and the level in the absence of SCF complex was used as the blank value for the assays. Inhibitory activities of the compounds were indicated as % inhibition = 100 - (value with a compound sample added - blank value) / (control value - blank value) x 100. IC50 was indicated as the concentration of the compound showing 50% inhibition. Eu (K)-labeled ubiquitin, XL665-labeled anti-GST antibody, and XL665-labeled anti-His antibody were purchased from CIS bio international. Costar solid black plates (96 wells) were used for the assays.

IC50	Structure (SMILES)
10 to 20 µM	CCCNC(=O)COc1ccc(/C=C2\C(=O)N(c3ccc(C(=O)O)cc3)N=C2C)cc1 [Compound 534]
10 to 20 µM	CC1=NN(c2cccc(C(=O)N(C)CCO)c2)C(=O)/C1=C\c1ccc2c(c1)OCCO2 [Compound 414]
10 to 20 µM	COCC1=NN(c2ccccc2)C(=O)/C1=C\c1ccc2c(c1)OCCO2 [Compound 9]
10 to 20 µM	CC1=NN(c2ccc(S(N)(=O)=O)cc2)C(=O)C1=Cc1ccc(N2CCNCC2)cc1 [Compound 183]
10 to 20 µM	CC1=NN(c2cccc(C(=O)O)c2)C(=O)/C1=C\c1ccc(S(=O)(=O)O)o1 [Compound 520]
< 10 µM	CC1=NN(c2ccc(C(=O)N3CCCC3CO)cc2)C(=O)/C1=C\c1ccc2[nH]ccc2c1 (stereo not drawn) [Compound 362]
< 40 µM	CN1CCN(c2ccc(/C=C3\C(=O)N(c4ccccc4)N=C3Cc3ccccc3)cc2)CC1 [Compound 100]
10 to 20 µM	O=C(O)c1ccc(N2N=C(c3ccncc3)C(=Cc3ccc4c(c3)OCCO4)C2=O)cc1 [Compound 288]
< 40 µM	CC1=NN(c2cccc(S(N)(=O)=O)c2)C(=O)/C1=C\c1ccc(N2CCC(CO)CC2)cc1 [Compound 173]
< 10 µM	NS(=O)(=O)c1ccc(N2N=C(C3CC3)/C(=C/c3ccc(-n4cccn4)cc3)C2=O)cc1 [Compound 110]
< 40 µM	CCCCC1=NN(c2ccccc2)C(=O)/C1=C\c1nccs1 [Compound 105]
< 40 µM	O=C(O)c1ccc(N2N=C(c3ccccn3)/C(=C/c3ccc(-n4cccn4)cc3)C2=O)cc1 [Compound 294]
< 40 µM	O=C1/C(=C\c2ccc(-n3cccn3)cc2)C(C2CC2)=NN1c1ccccc1 [Compound 79]
< 10 µM	CC1=NN(c2cccc(S(N)(=O)=O)c2)C(=O)/C1=C\c1cccc2cc[nH]c12 [Compound 140]
< 10 µM	CC1=NN(c2cccc(C(=O)O)c2)C(=O)/C1=C\c1ccc2occc2c1 [Compound 368]
< 10 µM	CC1=NN(c2cccc(C(=O)O)c2)C(=O)/C1=C\c1cccc2cc[nH]c12 [Compound 356]
< 10 µM	CC1=NN(c2cccc(C(=O)O)c2)C(=O)/C1=C\c1ccc2cc[nH]c2c1 [Compound 381]
< 10 µM	CC1=NN(c2ccc(S(N)(=O)=O)cc2)C(=O)/C1=C\c1ccc(N2CCN(c3ccc(F)cc3)CC2)cc1 [Compound 176]
< 40 µM	CC1=NN(c2cccc(C(=O)O)c2)C(=O)/C1=C\c1ccsc1 [Compound 515]

IC50	Structure (SMILES)
< 40 µM	COc1cc(/C=C2/C(=O)N(c3ccccc3F)N=C2C)ccc1O [Compound 197]
< 40 µM	O=C1/C(=C\c2cccc3nccnc23)C(C2CC2)=NN1c1ccccc1 [Compound 72]
10 to 20 µM	COc1cc(/C=C2\C(=O)N(c3cccc(S(N)(=O)=O)c3)N=C2C)ccc1OS(=O)(=O)c1ccc(C)cc1 [Compound 203]
< 40 µM	CC1=NN(c2ccccc2)C(=O)/C1=C\c1ccc(OCCCN(C)C)cc1 [Compound 217]
< 40 µM	CC1=NN(c2cccc(S(N)(=O)=O)c2)C(=O)/C1=C\c1ccc(N2CCCC2CO)cc1 (stereo not drawn) [Compound 174]
< 40 µM	CC1=NN(c2ccccc2)C(=O)/C1=C\c1ccc(OCC(=O)Nc2ccccc2)cc1 [Compound 205]
< 40 µM	CCOC(=O)CN1CCN(c2ccc(/C=C3\C(=O)N(c4cccc(C(=O)O)c4)N=C3C)cc2)CC1 [Compound 446]
10 to 20 µM	COc1cc(/C=C2\C(=O)N(c3ccccc3)N=C2Cc2ccccc2)ccc1O [Compound 22]
< 40 µM	O=C1/C(=C\c2ccc3ccccc3c2)C(Cc2ccccc2)=NN1c1ccccc1 [Compound 23]
< 40 µM	CC1=NN(c2ccc(S(N)(=O)=O)cc2)C(=O)/C1=C\c1ccc(-n2cncn2)cc1 [Compound 109]
< 40 µM	CC1=NN(c2ccc(C(=O)NCC(C)O)cc2)C(=O)C1=Cc1ccc2c(c1)OCCO2 (stereo not drawn) [Compound 400]
< 40 µM	COc1cc(/C=C2\C(=O)N(c3cccc(S(N)(=O)=O)c3)N=C2C)ccc1OCC1CC1 [Compound 160]
< 40 µM	CC1=NN(c2ccc(S(=O)(=O)N3CCC(O)CC3)cc2)C(=O)/C1=C\c1ccc2c(c1)OCO2 [Compound 162]
< 10 µM	CC1=NN(c2ccc(C(=O)N3CCCCC3)cc2)C(=O)/C1=C\c1ccc2[nH]ccc2c1 [Compound 358]
< 10 µM	CC1=NN(c2cccc(C(=O)O)c2)C(=O)/C1=C\c1ccc(N2CCNCC2)cc1 [Compound 452]
10 to 20 µM	CC1=NN(c2cccc(C(=O)NC[C@H](C)O)c2)C(=O)/C1=C\c1ccc2c(c1)OCCO2 [Compound 401]
< 40 µM	O=C1/C(=C\c2ccc(-n3cncn3)cc2)C(Cc2ccccc2)=NN1c1ccccc1 [Compound 31]
< 40 µM	CC(=O)OCc1ccc(/C=C2\C(=O)N(c3cccc(C(=O)O)c3)N=C2C)o1 [Compound 516]
< 40 µM	CC1=NN(c2ccc(S(N)(=O)=O)cc2)C(=O)C1=Cc1ccc(N2CCCC2CO)cc1 (stereo not drawn) [Compound 172]

IC50	Structure (SMILES)
< 10 µM	O=C(O)c1ccc(N2N=C(c3ccoc3)/C(=C/c3ccc4c(c3)OCO4)C2=O)cc1 [Compound 476]
< 10 µM	CC1=NN(c2ccc(C(=O)N3CCOCC3)cc2)C(=O)/C1=C\c1ccc2[nH]ccc2c1 [Compound 357]
< 40 µM	COC(=O)c1ccc(COc2ccc(/C=C3\C(=O)N(c4ccccc4)N=C3C)cc2OC)cc1 [Compound 122]
< 10 µM	CC1=NN(c2ccc(C(=O)N3CCN(c4ccccc4)CC3)cc2)C(=O)C1=Cc1ccc2[nH]ccc2c1 [Compound 353]
10 to 20 µM	COc1cc(/C=C2\C(=O)N(c3ccc(C(=O)O)cc3)N=C2c2ccc(OC)c(OC)c2)ccc1O [Compound 332]
10 to 20 µM	O=C(O)c1ccc(N2N=C(Cc3ccccc3)/C(=C/c3ccc(-n4cccn4)cc3)C2=O)cc1 [Compound 275]
< 40 µM	COCC1=NN(c2ccccc2)C(=O)/C1=C\c1ccc(N2CCN(C(=O)OC)CC2)cc1 [Compound 5]
10 to 20 µM	CCCCC1=NN(c2ccccc2)C(=O)/C1=C\c1ccc(O)c(OC)c1 [Compound 50]
10 to 20 µM	COCC1=NN(c2cccc(C(=O)O)c2)C(=O)/C1=C\c1ccc(N2CCCC2)cc1 [Compound 471]
10 to 20 µM	CC1=NN(c2ccc(S(N)(=O)=O)cc2)C(=O)C1=Cc1cccc(C(=O)O)c1 [Compound 222]
< 10 µM	CC1=NN(c2cccc(S(N)(=O)=O)c2)C(=O)/C1=C\c1ccc2cc[nH]c2c1 [Compound 149]
< 40 µM	CC1=NN(c2ccc(C(=O)O)cc2)C(=O)/C1=C\c1c(C)nn(C)c1Cl [Compound 514]
< 40 µM	COc1ccc(C2=NN(c3ccccc3)C(=O)/C2=C\c2ccc(CO)o2)cc1 [Compound 90]
< 10 µM	CC1=NN(c2cccc(C(=O)O)c2)C(=O)/C1=C\c1ccc(N2CCC(C(=O)O)CC2)cc1 [Compound 424]
< 40 µM	COc1ccc(C2=NN(c3ccc(C(=O)O)cc3)C(=O)C2=Cc2ccc(-n3cccn3)cc2)cc1OC [Compound 342]
10 to 20 µM	COC(=O)N1CCN(c2ccc(C=C3C(=O)N(c4ccc(C(=O)O)cc4)N=C3c3ccccn3)cc2)CC1 [Compound 335]
< 10 µM	CC1=NN(c2ccc(C(=O)O)cc2)C(=O)/C1=C\c1cc2ccccc2n1C [Compound 360]
< 40 µM	CC1=NN(c2ccc(S(N)(=O)=O)cc2)C(=O)/C1=C\c1ccccc1O [Compound 219]
< 40 µM	O=C(O)c1ccc(N2N=C(c3ccccn3)/C(=C/c3ccc(N4CCC(O)CC4)s3)C2=O)cc1 [Compound 293]
